Measured values as given in patent publication US20240293413A1, “COMPOUND AND METHOD FOR TREATING CHEMOTHERAPY-RELATED GASTROINTESTINAL SIDE EFFECTS” (ONQUALITY PHARMACEUTICALS CHINA LTD., priority 2021, published 2024).

Experiments:
Type in all cases: in vivo
[1] = tested on: Chemotherapeutic agent-caused constipation models of Balb/c mice; assay: Examples 272-342 (Table 5): oral CDK inhibitor, relief of constipation caused by a chemotherapeutic agent;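 also: percent of treated mice relieved versus chemotherapy group by feces reduction rate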
How it was run: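 Balb/c mice, 10 per group: control, chemotherapeutic agent alone, or intragastric CDK inhibitor followed by the chemotherapeutic agent. Feces produced within 3 hours were recorded daily, and feces reduction rate (%) was calculated relative to the control group.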

[2] = tested on: diarrhea caused by a chemotherapeutic agent in Balb/c mice; assay: Examples 382-405 (Table 7): various administration modes of the CDK inhibitor, relief of diarrhea caused by a chemotherapeutic agent; details: for Relative remission rate of oral administration: CDK inhibitor oral 150 mg/kg single
Description: Balb/c mice were fed for 1 week, and then divided into groups. The experiment was divided into a control group, a chemotherapeutic agent group, CDK inhibitor groups (including an oral administration group of a CDK inhibitor, an intraperitoneal injection group of a CDK inhibitor, an intramuscular injection group of a CDK inhibitor, a local administration group of a CDK inhibitor), each of which comprised 10 mice, to perform the administration experiment, for which the administration dosage, mode, time and frequency were shown in Table 7. The control group: being administered with the same solvent as that used in the CDK inhibitor group (the time and mode were shown in Table 7), and then being injected/intragastrically administered with the same solvent as that used in the chemotherapeutic agent group (the administration mode was shown in Table 7): the chemotherapeutic agent group: being administered with the same solvent as that used in the CDK inhibitor group (the time and mode were shown in Table 7), and then being injected/intragastrically administered with the chemotherapeutic agent (the type, administration mode and dosage were shown in Table 7): the oral administration group of the CDK inhibitor: being intragastrically administered with the CDK inhibitor (the time was shown in Table 7), and then being administered with the chemotherapeutic agent (the mode and dosage were shown in Table 7): the intraperitoneal injection group of the CDK inhibitor: being intraperitoneally injected with the CDK inhibitor (the time was shown in Table 7), and then being administered with the chemotherapeutic agent (the mode and dosage were shown in Table 7): the intramuscular injection group of the CDK inhibitor: being intramuscularly injected with the CDK inhibitor (the time was shown in Table 7), and then being administered with the chemotherapeutic agent (the mode and dosage were shown in Table 7); and the local administration group of the CDK inhibitor: the hair on the abdomen of mice was shaved (about 2 cm*2 cm), being applied with the CDK inhibitor (the time was shown in Table 7), and then being administered with the chemotherapeutic agent (the mode and dosage were shown in Table 7).
The diarrhea grading of mice was observed and recorded every day.

[3] = tested on: constipation caused by a chemotherapeutic agent in Balb/c mice; assay: Examples 406-443 (Table 8): various administration modes of the CDK inhibitor, relief of constipation caused by a chemotherapeutic agent; details: for Relative remission rate of oral administration: CDK inhibitor oral 150 mg/kg single;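 as to all read-outs here: percent of treated mice relieved versus chemotherapy group by feces reduction rate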
Description: Balb/c mice were fed for 1 week, and then divided into groups. The experiment was divided into a control group, a chemotherapeutic agent group, CDK inhibitor groups (including an oral administration group of a CDK inhibitor, an intravenous injection group of a CDK inhibitor, an intraperitoneal injection group of a CDK inhibitor, an intramuscular injection group of a CDK inhibitor, a local administration group of a CDK inhibitor), each of which comprised 10 mice, to perform the administration experiment, for which the administration dosage, mode, time and frequency were shown in Table 8. The control group: being administered with the same solvent as that used in the CDK inhibitor group (the time and mode were shown in Table 8), and then being injected/intragastrically administered with the same solvent as that used in the chemotherapeutic agent group (the administration mode was shown in Table 8): the chemotherapeutic agent group: being administered with the same solvent as that used in the CDK inhibitor group (the time and mode were shown in Table 8), and then being injected/intragastrically administered with the chemotherapeutic agent (the type, administration mode and dosage were shown in Table 8): the oral administration group of the CDK inhibitor: being intragastrically administered with the CDK inhibitor (the time was shown in Table 8), and then being administered with the chemotherapeutic agent (the mode and dosage were shown in Table 8): the intravenous injection group of the CDK inhibitor: being injected with the CDK inhibitor through tail vein (the time was shown in Table 8), and then being administered with the chemotherapeutic agent (the mode and dosage were shown in Table 8): the intraperitoneal injection group of the CDK inhibitor: being intraperitoneally injected with the CDK inhibitor (the time was shown in Table 8), and then being administered with the chemotherapeutic agent (the mode and dosage were shown in Table 8): the intramuscular injection group of the CDK inhibitor: being intramuscularly injected with the CDK inhibitor (the time was shown in Table 8), and then being administered with the chemotherapeutic agent (the mode and dosage were shown in Table 8); and the local administration group of the CDK inhibitor: the hair on the abdomen of mice was shaved (about 2 cm*2 cm), being applied with the CDK inhibitor (the time was shown in Table 8), and then being administered with the chemotherapeutic agent (the mode and dosage were shown in Table 8).
Feces reduction rate (%)=(the control group−the chemotherapeutic agent group or the CDK inhibitor group)/the control group*100%
The feces amount of mice within 3 hours was observed and recorded every day.

CCN1CCN(Cc2ccc(Nc3ncc(F)c(-c4cc(F)c5nc(C)n(C(C)C)c5c4)n3)nc2)CC1 [Abemaciclib]
Relative remission rate ([1]; Example 295, Fluorouracil (5-Fu) intramuscular injection 200 mg/kg single, CDK inhibitor oral 100 mg/kg single, 22 h before, cycle 7 days): 60% | Relative remission rate ([1]; Example 296, Oxaliplatin intraperitoneal injection 20 mg/kg single, CDK inhibitor oral 100 mg/kg single, 0.5 h before, cycle 8 days): 50% | Relative remission rate ([1]; Example 297, Oxaliplatin intraperitoneal injection 20 mg/kg single, CDK inhibitor oral 100 mg/kg single, 4 h before, cycle 8 days): 40% | Relative remission rate ([1]; Example 298, Oxaliplatin intraperitoneal injection 20 mg/kg single, CDK inhibitor oral 100 mg/kg single, 8 h before, cycle 8 days): 60% | Relative remission rate ([1]; Example 299, Oxaliplatin intraperitoneal injection 20 mg/kg single, CDK inhibitor oral 100 mg/kg single, 12 h before, cycle 8 days): 60% | Relative remission rate ([1]; Example 300, Oxaliplatin intraperitoneal injection 20 mg/kg single, CDK inhibitor oral 100 mg/kg single, 24 h before, cycle 8 days): 40% | Relative remission rate ([1]; Example 301, Oxaliplatin intraperitoneal injection 20 mg/kg single, CDK inhibitor oral 100 mg/kg single, 48 h before, cycle 8 days): 0% | Relative remission rate ([1]; Example 312, Irinotecan (CPT-11) intravenous injection 260 mg/kg single, CDK inhibitor oral 150 mg/kg single, 14 h before, cycle 7 days): 50% | Relative remission rate ([1]; Example 324, Gemcitabine and paclitaxel intraperitoneal injection 60 (G) 10 (P) mg/kg single, CDK inhibitor oral 150 mg/kg single, 24 h before, cycle 8 days): 60% | Relative remission rate ([1]; Example 342, Methotrexate (MTX) intraperitoneal injection 300 mg/kg single, CDK inhibitor oral 150 mg/kg single, 8 h before, cycle 7 days): 30% | Relative remission rate of other administration mode ([2]; Example 394, Carboplatin (CBP) intravenous injection 120 mg/kg single, CDK inhibitor intramuscular injection 150 mg/kg single, 8 h before, cycle 10 days): 20% | Relative remission rate of oral administration ([2]; Example 394, Carboplatin (CBP) intravenous injection 120 mg/kg single, 8 h before, cycle 10 days): 60% | Relative remission rate of other administration mode ([2]; Example 396, Gemcitabine (GEM) intraperitoneal injection 120 mg/kg single, CDK inhibitor intraperitoneal injection 150 mg/kg single, 0.5 h before, cycle 8 days): 10% | Relative remission rate of oral administration ([2]; Example 396, Gemcitabine (GEM) intraperitoneal injection 120 mg/kg single, 0.5 h before, cycle 8 days): 40% | Relative remission rate of other administration mode ([2]; Example 397, Gemcitabine (GEM) intraperitoneal injection 120 mg/kg single, CDK inhibitor intraperitoneal injection 150 mg/kg single, 4 h before, cycle 8 days): 20% | Relative remission rate of oral administration ([2]; Example 397, Gemcitabine (GEM) intraperitoneal injection 120 mg/kg single, 4 h before, cycle 8 days): 50% | Relative remission rate of other administration mode ([2]; Example 398, Gemcitabine (GEM) intraperitoneal injection 120 mg/kg single, CDK inhibitor intraperitoneal injection 150 mg/kg single, 8 h before, cycle 8 days): 30% | Relative remission rate of oral administration ([2]; Example 398, Gemcitabine (GEM) intraperitoneal injection 120 mg/kg single, 8 h before, cycle 8 days): 60% | Relative remission rate of other administration mode ([2]; Example 399, Gemcitabine (GEM) intraperitoneal injection 120 mg/kg single, CDK inhibitor intraperitoneal injection 150 mg/kg single, 12 h before, cycle 8 days): 30% | Relative remission rate of oral administration ([2]; Example 399, Gemcitabine (GEM) intraperitoneal injection 120 mg/kg single, 12 h before, cycle 8 days): 60% | Relative remission rate of other administration mode ([2]; Example 400, Gemcitabine (GEM) intraperitoneal injection 120 mg/kg single, CDK inhibitor intraperitoneal injection 150 mg/kg single, 24 h before, cycle 8 days): 10% | Relative remission rate of oral administration ([2]; Example 400, Gemcitabine (GEM) intraperitoneal injection 120 mg/kg single, 24 h before, cycle 8 days): 40% | Relative remission rate of other administration mode ([3]; Example 429, Carboplatin intravenous injection 120 mg/kg single, CDK inhibitor intramuscular injection 150 mg/kg single, 8 h before, cycle 10 days): 20% | Relative remission rate of oral administration ([3]; Example 429, Carboplatin intravenous injection 120 mg/kg single, 8 h before, cycle 10 days): 60% | Relative remission rate of other administration mode ([3]; Example 430, Gemcitabine intraperitoneal injection 120 mg/kg single, CDK inhibitor intraperitoneal injection 150 mg/kg single, 0.5 h before, cycle 8 days): 10% | Relative remission rate of oral administration ([3]; Example 430, Gemcitabine intraperitoneal injection 120 mg/kg single, 0.5 h before, cycle 8 days): 40% | Relative remission rate of other administration mode ([3]; Example 431, Gemcitabine intraperitoneal injection 120 mg/kg single, CDK inhibitor intraperitoneal injection 150 mg/kg single, 4 h before, cycle 8 days): 10% | Relative remission rate of oral administration ([3]; Example 431, Gemcitabine intraperitoneal injection 120 mg/kg single, 4 h before, cycle 8 days): 40% | Relative remission rate of other administration mode ([3]; Example 432, Gemcitabine intraperitoneal injection 120 mg/kg single, CDK inhibitor intraperitoneal injection 150 mg/kg single, 8 h before, cycle 8 days): 10% | Relative remission rate of oral administration ([3]; Example 432, Gemcitabine intraperitoneal injection 120 mg/kg single, 8 h before, cycle 8 days): 40% | Relative remission rate of other administration mode ([3]; Example 433, Gemcitabine intraperitoneal injection 120 mg/kg single, CDK inhibitor intraperitoneal injection 150 mg/kg single, 12 h before, cycle 8 days): 20% | Relative remission rate of oral administration ([3]; Example 433, Gemcitabine intraperitoneal injection 120 mg/kg single, 12 h before, cycle 8 days): 60% | Relative remission rate of other administration mode ([3]; Example 434, Gemcitabine intraperitoneal injection 120 mg/kg single, CDK inhibitor intraperitoneal injection 150 mg/kg single, 24 h before, cycle 8 days): 20% | Relative remission rate of oral administration ([3]; Example 434, Gemcitabine intraperitoneal injection 120 mg/kg single, 24 h before, cycle 8 days): 60%
